Publication PMC3524758, “Development and evaluation of a novel radioiodinated vesamicol analog as a sigma receptor imaging agent” (EJNMMI Research, 2012)

How the values were obtained:
sigma-1 receptor = molecular target: T1, sigma-1 receptor (Rattus norvegicus, UniProt Q9R0C9); set-up: method as in PMID 15670917; conditions: cited from earlier work
T1 construct: from tissue; host or cells: rat brain without cerebellum (male Sprague-Dawley rats)

sigma receptors = test: Blocking studies with excess sigma ligand in DU-145 tumor-bearing mice; assay type: in vivo; conditions: 10 μmol/kg i.v. co-injection, 1-h post-injection
Method: At 1-h post-injection, the mice were killed, and biodistribution experiments were conducted as described above.

[1] = set-up: method as in PMID 19659515; conditions: cited from earlier work
[2] = test system: DU-145 prostate cancer cell lines; test: Cellular uptake and washout experiments in vitro; assay type: cell-based; conditions: DU-145 cells
Method: Radiotracer uptake studies were performed in monolayer cultures of DU-145 prostate cancer cell lines, which were obtained from ATCC (Manassas, VA, USA). Cells were grown in cell culture dishes in RPMI 1640 medium with phenol red, 10% heat-inactivated fetal bovine serum (FBS), 100-μg/mL glutamine, 100-units/mL penicillin, and 100-μg/mL streptomycin at 37°C in a humidified atmosphere of 95% air and 5% carbon dioxide. Cells were plated on 6-well tissue culture plates (4 × 10^5 cells/well) for 24 h before the study and incubated at 37°C in the culture medium without FBS containing (+)-^125I]IV-OH or (+)-^125I]pIV (3.7 kBq/well), which was prepared by a method of a previous study for different time intervals (15, 30, 60, and 120 min). For the washout experiment, tumor cells exposed to a medium containing (+)-^125I]IV-OH or (+)-^125I]pIV for 60 min were washed with phosphate buffered saline (PBS) and incubated in fresh (nonradioactive) medium without FBS at 37°C for 15, 30, and 60 min. […] After incubation, cells were washed twice with ice-cold PBS and resolved by adding 0.5 mL of 1-M NaOH. The solutions were then collected and the radioactivity was determined with an auto well gamma counter (ARC-380; Aloka) and corrected for background radiation. The radioactivity of each sample was normalized for the protein level, which was determined using a Protein Assay Bicinchoninate Kit (Nacalai Tesque).

T1 sequence (Q9R0C9 whole entry): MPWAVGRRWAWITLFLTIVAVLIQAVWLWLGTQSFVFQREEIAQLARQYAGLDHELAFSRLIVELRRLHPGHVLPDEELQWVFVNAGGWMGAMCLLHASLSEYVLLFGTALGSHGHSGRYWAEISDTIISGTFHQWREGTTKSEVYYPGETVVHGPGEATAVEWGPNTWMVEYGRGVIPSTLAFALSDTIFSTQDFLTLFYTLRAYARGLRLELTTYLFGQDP

## O[C@@H]1CCCCC1N1CCC(c2ccc(I)cc2)CC1 (single isomer, unassigned; (+)) [(+)-pIV, (+)-2-[4-(4-iodophenyl)piperidino]cyclohexanol]
sigma-1 receptor
  Ki: 1.3 nM
Sigma receptors
  effect of co-injected ligand on brain to blood uptake ratio of (+)-[^125I]IV-OH: significant decrease
  effect of co-injected ligand on pancreas to blood uptake ratio of (+)-[^125I]IV-OH: significant decrease
  effect of co-injected ligand on tumor to blood uptake ratio of (+)-[^125I]IV-OH: significant decrease

## O[C@H]1CCCC[C@@H]1N1CCC(c2ccc([125I])cc2)CC1 [(+)-[^125I]pIV, reference compound]
[1]
  log P: 2.08
[2]
  time at which uptake was saturated: 30 min
[2]; haloperidol 10 μM in culture medium
  accumulation in the presence of haloperidol: remarkably lessened
[2]; within 60 min after medium replacement, specific uptake
  intracellular radioactivity released into the supernatant: 44%
